In patent US20250152719A1, “FUSED IMIDE DERIVATIVE” (Chia Tai Tianqing Pharmaceutical Group Co., Ltd., priority 2021, published 2025):

Assays:
[1] = target: BTK (Homo sapiens (Human), UniProt Q06187); assay: BTK degradation in OCI-LY10 cells (Total-BTK HTRF kit); type: cell-based; settings: 24 (or 6) h incubation; for DC50: DC50 = concentration when degradation rate reaches 50%, read-out: OCI-LY10 cell BTK degradation DC50; for Dmax / BTK degradation in OCI-LY10 cells Dmax: maximum degradation rate
Chain of BTK (Q06187 whole entry): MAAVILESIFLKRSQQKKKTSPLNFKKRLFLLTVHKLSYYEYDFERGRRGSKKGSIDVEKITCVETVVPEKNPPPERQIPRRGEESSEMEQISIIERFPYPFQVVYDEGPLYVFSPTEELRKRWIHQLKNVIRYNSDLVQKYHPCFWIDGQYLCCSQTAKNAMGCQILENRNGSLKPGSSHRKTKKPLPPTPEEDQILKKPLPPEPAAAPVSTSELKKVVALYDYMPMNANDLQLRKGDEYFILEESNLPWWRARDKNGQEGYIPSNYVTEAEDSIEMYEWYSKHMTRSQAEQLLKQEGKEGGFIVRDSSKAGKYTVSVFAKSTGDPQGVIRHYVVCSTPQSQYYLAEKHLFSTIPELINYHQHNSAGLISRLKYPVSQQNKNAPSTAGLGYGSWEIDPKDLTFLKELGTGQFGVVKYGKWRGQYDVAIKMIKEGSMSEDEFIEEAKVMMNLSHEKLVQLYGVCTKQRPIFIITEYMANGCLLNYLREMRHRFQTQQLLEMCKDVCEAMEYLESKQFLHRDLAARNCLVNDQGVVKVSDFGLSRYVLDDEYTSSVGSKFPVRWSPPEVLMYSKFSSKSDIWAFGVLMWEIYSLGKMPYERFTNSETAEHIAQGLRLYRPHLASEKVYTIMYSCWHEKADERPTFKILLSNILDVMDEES
Description: The detection was carried out using the Total-BTK Kits (cisbio, 63ADK064PEH), and 4× Supplemented Lysis buffer was prepared using the Blocking reagent stock solution (100×) and Lysis buffer stock solution (4×). Premixed antibody solutions were prepared using the Detection buffer, Total-BTK d2 antibody, and Total-BTK Eu Cryptate antibody.
OCI-LY10 cells in a good growth state were collected and added to a centrifuge tube, adjusted to a cell density of 4.17×10^6 cells/mL, and seeded in a 384-well plate (12 μL/well). The cells were incubated overnight in a cell incubator. Compounds were added using a nanoliter pipettor such that the final concentrations of the compounds were 100 nM-0.098 nM; the addition was performed in duplicate, and meanwhile, a control was set. After another 24 (or 6) h of incubation in the cell incubator, the 4× Supplemented Lysis buffer was added at 4 μL/well to lyse the cells. After the cells were shaken for 40 min at room temperature, the Premixed antibody solutions were added at 4 μL/well, and the cells were left to stand overnight at room temperature. Fluorescence values of the cells were detected at 665 nm/620 nm using an Envision microplate reader, the four-parameter analysis was performed, the dose-response curves were fit, and DC50 (the concentration of the drug when the degradation rate reaches 50%) and Dmax (the maximum degradation rate) were calculated.

[2] = system: OCI-LY10 cells; assay: Inhibitory activity on OCI-LY10 cell proliferation (CCK-8); type: cell-based
Description: (§1) OCI-LY10 cells in a good growth state were collected and added to a centrifuge tube, adjusted to a cell density of 1×10^5 cells/mL, and seeded in a 96-well plate (100 μL/well). The cells were incubated overnight in a cell incubator. Compounds were added using a nanoliter pipettor such that the final concentrations of the compounds were 5000 nM-0.31 nM; the addition was performed in duplicate, and meanwhile, a control was set. After another 72 h of incubation in the cell incubator, 10 μL of CCK-8 (CK04, PP799) was added. After 2.5 h of incubation in the cell incubator, absorbance values were detected at 450 nm using an Envision microplate reader, the four-parameter analysis was performed, the dose-response curves were fit, and IC50 was calculated.

[3] = In vitro liver microsomal stability, mouse; settings: 0.5 mg/mL microsomes, NADPH, 37° C., 1 h
Description: Liver microsome incubation samples were prepared by mixing a PBS buffer (pH 7.4), a liver microsome solution (0.5 mg/mL), a test compound, and an NADPH+MgCl2 solution and incubated at 37° C. and 300 rpm for 1 h. Zero-hour samples were prepared by mixing a PBS buffer (pH 7.4), a liver microsome solution (0.5 mg/mL), and a test compound. An acetonitrile solution containing an internal standard was added to the samples, and supernatants were prepared by protein precipitation, diluted, and then assayed by LC/MS/MS.

[4] = system: TMD8-BTK(C481S) cells; assay: Inhibitory activity on TMD8-BTK(C481S) cell proliferation (CCK-8); type: cell-based; settings: 72 h incubation
Description: as §1, with “TMD8-BTK(C481S)” for “OCI-LY10”, “8×10^4” for “1×10^5”, “4” for “2.5”

[5] = system: OCI-LY10-BTK(C481S) cells; assay: Inhibitory activity on OCI-LY10-BTK(C481S) cell proliferation (CCK-8); type: cell-based; settings: 72 h incubation, IC50 per method, unit inferred
Description: OCI-LY10(C481S) cells in the logarithmic growth phase were collected and added to a centrifuge tube, adjusted to a cell density of 5×10^4 cells/mL, and seeded in a 96-well plate (100 μL/well). Meanwhile, compounds were added using a nanoliter pipettor such that the final concentrations of the compounds were 5000 nM-0.31 nM; the addition was performed in duplicate, and meanwhile, a control was set. After another 72 h of incubation in the cell incubator, the detection reagent CCK-8 (manufacturer: Dojindo Laboratories, Beijing; 10 μL/well) was added. After 3 h of incubation in the cell incubator, absorbance values were detected at 450 nm using a PerkinElmer Envision microplate reader, the four-parameter analysis was performed, the dose-response curves were fit, and IC50 was calculated.

[6] = Mouse pharmacokinetics; type: in vivo, ICR mice
Description: ICR mice weighing 18-22 g were randomized into groups of 9 after 3-5 days of acclimatization and then intragastrically given the test compound solution at a dose of 10 mg/kg. Plasma samples to be tested were prepared by taking blood from the orbit at time points of 15 min, 30 min, 1 h, 2 h, 3 h, 4 h, 6 h, 8 h, 10 h, and 24 h. 20 μL of each plasma sample to be detected and a standard curve sample were taken, and an acetonitrile solution containing an internal standard was added. […] Pharmacokinetic parameters were fitted using a non-compartmental model (see Table 5).

[7] = system: TMD-8 xenograft tumors; assay: In vivo drug efficacy, TMD-8 mouse subcutaneous xenograft tumors; parameters: species or system NOD-SCID mice; settings: 30 mg/kg, qd, i.g.; for TGI d 17: 16 days, tumor weight on day 17; for TV on d 0 Mean ± SD: day 0 (baseline at grouping); for TV on d 12 Mean ± SD: day 12; for TV on d 15 Mean ± SD: day 15
Description: TMD-8 mouse subcutaneous xenograft tumors: TMD-8 (WT) cells at a concentration of 1×10^8/mL were inoculated under aseptic conditions into the right side armpit of NOD-SCID mice at 0.1 mL/mouse. After subcutaneous grafting, the animals were divided into groups with 6 animals in each group when the tumor volume reached about 188 mm^3 (or 200 mm^3):
model group: vehicle, 6 mice; compound administration groups: 30 mg/kg, qd, i.g., 6 mice.
The vehicle or the test compound was intragastrically given at a volume of 4 mL/kg, once daily for 16 consecutive days. The tumor volume was measured 2-3 times a week, and meanwhile, the mice were weighed and the data were recorded; the general behaviors of the animals were observed every day. After all dosing was complete, the animals were sacrificed on day 17, and the tumors were removed and weighed.
The tumor volume and the tumor growth inhibition were calculated using the following formulae:
Tumor volume (TV)=(Length×Width^2)/2.
Tumor growth inhibition (TGI)=(1−tumor weight of treatment group/tumor weight of model group)×100%.

[8] = Homo sapiens, OCI-Ly10, 72 h incubation

Compound | DC50 ([1]; OCI-LY10 cells) [nM] | Dmax ([1]; OCI-Ly10, OCI-LY10 cells) [%] | IC50 [2, 8] [nM] | Mouse liver microsome Residuals at 60 min [3] [%] | IC50 ([5]; 72 h) [nM] | other results
CN1CCN([C@@H]2CCCN(c3cnc(C(N)=O)c(Nc4ccc(C5CCN(C[C@@H]6CCC(c7ccc8c(C9CCC(=O)NC9=O)noc8c7)C6)CC5)cc4)n3)C2)C1=O (stereo partly drawn) [Compound 7] | < 0.098 | 99 | < 0.31 | 42.7 |  | 
CN1CCN([C@@H]2CCCN(c3cnc(C(N)=O)c(Nc4ccc(C5CCN(CC6CCN(c7ccc8c(C9CCC(=O)NC9=O)noc8c7)CC6)CC5)cc4)n3)C2)C1=O (stereo partly drawn) [Compound 8] | < 0.098 | 99 | < 0.31 | 54.7 |  | IC50 ([4]; 72 h): 6.9 nM
CN1CCN([C@@H]2CCCN(c3cnc(C(N)=O)c(Nc4ccc(C5CCN(C[C@@H]6CCC(c7cc8onc(C9CCC(=O)NC9=O)c8c8cc[nH]c78)C6)CC5)cc4)n3)C2)C1=O (stereo partly drawn) [Compound 13] | < 0.098 |  |  | 56.41 |  | BTK degradation in OCI-LY10 cells Dmax ([1]; OCI-LY10 cells): 100%; IC50 ([2]; 72 h incubation): < 0.31 nM; IC50 [5]: < 0.31 nM
CN1CCN([C@@H]2CCCN(c3cnc(C(N)=O)c(Nc4ccc(C5CCN(C[C@@H]6CCC(c7cc8[nH]ccc8c8c(C9CCC(=O)NC9=O)noc78)C6)CC5)cc4)n3)C2)C1=O (stereo partly drawn) [Compound 14] | < 0.098 |  |  | 62.41 |  | BTK degradation in OCI-LY10 cells Dmax ([1]; OCI-LY10 cells): 100%; IC50 ([2]; 72 h incubation): < 0.31 nM; IC50 [5]: < 0.31 nM
CN1CCN([C@@H]2CCCN(c3cnc(C(N)=O)c(Nc4ccc(N5CCC(CN6CCc7c(ccc8c(C9CCC(=O)NC9=O)noc78)C6)CC5)cc4)n3)C2)C1=O (stereo partly drawn) [Compound 28] |  | > 90 | < 0.31 |  | 0.29 | 
CN1CCN([C@@H]2CCCN(c3cnc(C(N)=O)c(Nc4ccc(N5CCC(CN6Cc7cc8onc(C9CCC(=O)NC9=O)c8cc7C6)CC5)cc4)n3)C2)C1=O (stereo partly drawn) [Compound 29] |  | > 90 | < 0.31 |  | 0.35 | 
CN1CCN([C@@H]2CCCN(c3cnc(C(N)=O)c(Nc4ccc(N5CCC(N6Cc7ccc8c(C9CCC(=O)NC9=O)noc8c7C6)CC5)cc4)n3)C2)C1=O (stereo partly drawn) [Compound 30] |  |  | < 0.31 |  |  | Dmax ([1]; OCI-LY10 cells): > 90%; IC50 [5]: 0.44 nM
CN1CCN([C@@H]2CCCN(c3cnc(C(N)=O)c(Nc4ccc(N5CCC(N6CCc7ccc8c(C9CCC(=O)NC9=O)noc8c7C6)CC5)cc4)n3)C2)C1=O (stereo partly drawn) [Compound 34] | < 0.098 | 97 | < 0.31 |  | 0.19 | 
CN1CCN([C@@H]2CCCN(c3cnc(C(N)=O)c(Nc4ccc(N5CCC(N6CCc7c(ccc8c(C9CCC(=O)NC9=O)noc78)C6)CC5)cc4)n3)C2)C1=O (stereo partly drawn) [Compound 35] |  | > 90 | < 0.31 |  | 0.12 | 
CN1CCN([C@@H]2CCCN(c3cnc(C(N)=O)c(Nc4ccc(N5CCC(N6CCc7ccc8c(C9CCC(=O)NC9=O)noc8c7CC6)CC5)cc4)n3)C2)C1=O (stereo partly drawn) [Compound 36] | < 0.098 | 95 | < 0.31 |  | 0.024 | 
CN1CCN([C@@H]2CCCN(c3cnc(C(N)=O)c(Nc4ccc5c(c4)CCN(CC4Cc6ccc7c(C8CCC(=O)NC8=O)noc7c6C4)C5)n3)C2)C1=O (stereo partly drawn) [Compound 41] |  |  | < 0.31 |  |  | BTK degradation in OCI-LY10 cells Dmax ([1]; OCI-LY10 cells): >90%; IC50 [5]: 0.34 nM
CN1CCN([C@@H]2CCCN(c3cnc(C(N)=O)c(Nc4ccc(C5CCN(CC6Cc7ccc8c(C9CCC(=O)NC9=O)noc8c7C6)CC5)cc4)n3)C2)C1=O (stereo partly drawn) [Compound 90] |  |  |  | 54.63 |  | BTK degradation in OCI-LY10 cells Dmax ([1]; OCI-LY10 cells): >90%; IC50 ([2]; 72 h incubation): < 0.31 nM; IC50 [4]: 1.2 nM; AUC ([6]; Mouse i.g. 10 mpk): 18944 ng·h/mL; Cmax ([6]; Mouse i.g. 10 mpk): 2550 ng/mL; F ([6]; Mouse i.g. 10 mpk): 21.0%; t1/2 ([6]; Mouse i.g. 10 mpk): 3 h; AUC ([6]; Mouse i.v. 1 mpk): 8882 ng·h/mL; Cl ([6]; Mouse i.v. 1 mpk): 1.83 mL/min/kg; t1/2 ([6]; Mouse i.v. 1 mpk): 2.7 h
CN1CCN([C@@H]2CCCN(c3cnc(C(N)=O)c(Nc4ccc(C5CCN(CC6CN(c7cc8onc(C9CCC(=O)NC9=O)c8c8ccccc78)C6)CC5)cc4)n3)C2)C1=O (stereo partly drawn) [Compound 96] |  | > 90 | < 0.31 |  | 0.31 | 
NC(=O)c1ncc(N2CCCCC2)nc1Nc1ccc(C2CCN(C[C@@H]3CC[C@@H](n4ccc5c6c(C7CCC(=O)NC7=O)noc6ccc54)C3)CC2)cc1 (stereo partly drawn) [Compound 104] |  |  |  |  |  | IC50 ([4]; 72 h): 16 nM; TGI d 17 [7]: 96.0%; TV on d 0 Mean ± SD [7]: 226 ± 27 mm^3; TV on d 12 Mean ± SD [7]: 286 ± 77 mm^3; TV on d 15 Mean ± SD [7]: 269 ± 61 mm^3
NC(=O)c1ncc(N2CCCCC2)nc1Nc1ccc(C2CCN(C[C@@H]3CC[C@H](n4ccc5c6c(C7CCC(=O)NC7=O)noc6ccc54)C3)CC2)cc1 (stereo partly drawn) [Compound 105] |  |  |  |  |  | IC50 ([4]; 72 h): 6.9 nM; TGI d 17 [7]: 95.4%; TV on d 0 Mean ± SD [7]: 226 ± 28 mm^3; TV on d 12 Mean ± SD [7]: 253 ± 36 mm^3; TV on d 15 Mean ± SD [7]: 229 ± 49 mm^3
